Results on eleven compounds are retold here after ChEMBL document CHEMBL4118240, “'Tethering' fragment-based drug discovery to identify inhibitors of the essential respiratory membrane protein type II NADH dehydrogenase” (Bioorg Med Chem Lett, 2018).

Experiment [1] can be described thus: Inhibition of wild type Caldalkalibacillus thermarum TA2.A1 NDH2 preincubated for 1 hr followed by NADH addition measured after 8 mins.
Experiment [2] relates to Caldalkalibacillus thermarum TA2.A1. Nature of the experiment: Selectivity ratio of IC50 for wild type Caldalkalibacillus thermarum TA2.A1 NDH2 to IC50 for C-terminal His-tagged Caldalkalibacillus thermarum TA2.A1 NDH2 R382C mutant.
The nature of experiment [3]: Inhibition of C-terminal His-tagged Caldalkalibacillus thermarum TA2.A1 NDH2 R347C mutant preincubated for 1 hr followed by NADH addition measured after 8 mins.
Experiment [4] deals with Caldalkalibacillus thermarum TA2.A1. Nature of the experiment: Selectivity ratio of IC50 for wild type Caldalkalibacillus thermarum TA2.A1 NDH2 to IC50 for C-terminal His-tagged Caldalkalibacillus thermarum TA2.A1 NDH2 R347C mutant.
A short description of experiment [5]: Inhibition of C-terminal His-tagged Caldalkalibacillus thermarum TA2.A1 NDH2 R382C mutant preincubated for 1 hr followed by NADH addition measured after 8 mins.

pIC50: −log10 of the molar value.

As to `CN1CCN(CCCN2c3ccccc3Sc3ccc(C(F)(F)F)cc32)CC1` [TRIFLUOPERAZINE], in experiment [1], the pIC50 is 4.30.

As to `NCCSSCCNC(=O)C1CCN(C(=O)c2ccc3ncsc3c2)CC1`, the Ratio IC50 in experiment [2] and in experiment [4] was 3.7 each time. Also, the pIC50 in experiment [3] is 5.00; in experiment [1], 4.28; in experiment [5], 4.73.

In the case of `CN(C)CCSSCCCNC(=O)c1cccc(N(C)C)c1`, the Ratio IC50 in experiment [2] and in experiment [4] was 2.8 each time. Besides, the pIC50 in experiment [3] is 4.84; in experiment [1], 4.44; in experiment [5] it was 4.94.

For the compound `CN(C)CCSSCCNC(=O)C(CC(=O)c1ccccc1)c1cc2ccccc2n1C` (stereo unspecified), the Ratio IC50 in experiment [2] and in experiment [4] was 1.3 each time. In addition, the values for the pIC50 in experiment [3], in experiment [1] and in experiment [5] were 4.89, 4.89 and 5.15, respectively.

In the case of `CN(C)CCSSCCNC(=O)[C@H]1CCCN(C(=O)c2cc3cccc(O)c3cc2O)C1`, the Ratio IC50 in experiment [2] and in experiment [4] was 0.6 in each case. For the same compound, the pIC50 in experiment [3] was 4.66; in experiment [1], 4.95; in experiment [5], 4.89.

Turning to `CN(C)CCSSCCn1cc(-c2ccc(N(C)C)cc2)nn1`, the Ratio IC50 in experiment [2] and in experiment [4] was 3.6 in each case. The pIC50 in experiment [3] was 4.25; in experiment [1], 3.83; in experiment [5], 4.62.

As for `CN(C)CCSSCCNC(=O)c1cccc2cc[nH]c12`, the Ratio IC50 in experiment [2] and in experiment [4] was 0.9 throughout. Moreover, the pIC50 in experiment [3] was 3.96; in experiment [1], 4.21; in experiment [5], 4.49.

In the case of `CN(C)CCSSCCNC(=O)c1ccc(C#Cc2ccccc2)o1`, the Ratio IC50 in experiment [2] and in experiment [4] was 0.9 in each case. For the same compound, the pIC50 in experiment [3] is 5.23; in experiment [1], 5.25; in experiment [5] it was 5.20.

`CN(C)CCSSCCNC(=O)CCC(=O)c1ccccn1`: the Ratio IC50 in experiment [2] and in experiment [4] was 9.3 in each case. For the same compound, the negative-log IC50 (pIC50) in experiment [3] is 5.23; in experiment [1], 4.37; in experiment [5], 5.49.

In the case of `CN(C)CCSSCCNC(=O)c1c(N)cccc1Cl`, the Ratio IC50 in experiment [2] and in experiment [4] was 0.8 in each case. The pIC50 in experiment [3] is 4.22; in experiment [1], 4.42; in experiment [5], 4.47.

With `CN(C)CCSSCCNC(=O)[C@H]1CCCN(C(=O)c2ccc(-n3cccc3)cc2)C1`, the Ratio IC50 in experiment [2] and in experiment [4] was 3 each time. In addition, the results for the pIC50 in experiment [3], in experiment [1] and in experiment [5] were 4.58, 4.10 and 4.57, respectively.
